Read-outs that look alike come from different tables or passages of the source.
How the values were obtained:
[1] = test system: Phosphorylation of ERK1/2 in AsPC-1 cells; assay: Phospho-ERK1/2 MSD assay; format: cell-based
Experimental: Sixteen hours prior to compound treatment, AsPC-1 cells were seeded in 96-well cell culture plates at a density of 25,000 cells/well and incubated at 37° C., 5% CO2. A compound dose-response titration was diluted in growth media, added to appropriate wells of a cell culture plate, and then incubated at 37° C., 5% CO2 for 2 hours.

[2] = target: His-tagged KRAS G12D protein (Homo sapiens, UniProt P01116, G12D); assay: KRAS G12D TR-FRET assay (binding); conditions: biotinylated KRPep-2d substrate, GDP in assay buffer
Experimental: The plate was incubated for 30 minutes at room temperature. Biotinylated KRPep-2d substrate (Amgen) was diluted to 20 nM in Assay Buffer and 2 L was added to all wells and incubated for 1 hour at room temperature. Detection Reagent (0.4 nM LANCE Eu-W1024 Anti-6xHis (Perkin Elmer AD0401), 5 nM streptavidin-d^2 (Cisbio 610SADLA)) was prepared in Assay Buffer, then 4 μL was added to the plate and incubated for 1 hour at room temperature.

[3] = Homo sapiens, ASPC1, read-out: 2 h p-ERK (AsPC-1 cells), IC50 (μM), 2 hours compound treatment

Sequence of His-tagged KRAS G12D protein (P01116 1-188 isoform P01116-2 G12D): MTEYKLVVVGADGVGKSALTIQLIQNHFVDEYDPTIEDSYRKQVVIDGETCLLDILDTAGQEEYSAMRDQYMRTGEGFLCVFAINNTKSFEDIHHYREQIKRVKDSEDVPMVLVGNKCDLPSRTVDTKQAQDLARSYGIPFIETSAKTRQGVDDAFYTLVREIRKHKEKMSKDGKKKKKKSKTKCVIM

| Structure (SMILES) | IC50 [1, 3] [µM] | IC50 [2] [nM] | IC50 ([1]; read-out: 2 h p-ERK (AsPC-1 cells), IC50, 2 hours compound treatment) [µM] |
| --- | --- | --- | --- |
| CCc1cccc2cc(O)cc(-c3ncc4c(N5CCOC[C@@](C)(O)C5)nc(OC[C@@]56CCCN5C[C@H](F)C6)nc4c3F)c12 [Example 78, (S)-4-(7-(8-Ethyl-3-hydroxynaphthalen-1-yl)-8-fluoro-2-(((2R,7aS)-2-fluorotetrahydro-1H-pyrrolizin-7a(5H)-yl)methoxy)pyrido [4,3-d]pyrimidin-4-yl)-6-methyl-1,4-oxazepan-6-ol] | 0.013 | 1 | – |
| CCc1c(F)ccc2cc(O)cc(-c3ncc4c(N5CCOCC(O)(C6CC6)C5)nc(OC[C@@]56CCCN5C[C@H](F)C6)nc4c3F)c12 (stereo partly drawn) [Example 74, 6-Cyclopropyl-4-(7-(8-ethyl-7-fluoro-3-hydroxynaphthalen-1-yl)-8-fluoro-2-(((2R,7aS)-2-fluorotetrahydro-1H-pyrrolizin-7a(5H)-yl)methoxy)pyrido[4,3-d]pyrimidin-4-yl)-1,4-oxazepan-6-ol] | 0.436 | 4 | – |
| Oc1cc(-c2ncc3c(N4CCCOCC4)nc(OC[C@@]45CCCN4C[C@H](F)C5)nc3c2F)c2c(F)c(F)ccc2c1 [Example 3, 5,6-Difluoro-4-(8-fluoro-2-(((2R,7aS)-2-fluorotetrahydro-1H-pyrrolizin-7a(5H)-yl)methoxy)-4-(1,4-oxazepan-4-yl)pyrido[4,3-d]pyrimidin-7-yl)naphthalen-2-ol] | 0.047 | 2 | – |
| CCc1c(F)ccc2cc(O)cc(-c3ncc4c(N5CCOCC(C(N)=O)C5)nc(OC[C@@]56CCCN5C[C@H](F)C6)nc4c3F)c12 (single isomer, unassigned) [Example 47] | 1.47 | 3 | – |
| CCc1c(F)ccc2cc(O)cc(-c3ncc4c(N5C[C@H]6C[C@@H](C5)O6)nc(OC[C@@]56CCCN5C[C@H](F)C6)nc4c3F)c12 [Example 27, 4-(4-((1R,5S)-6-Oxa-3-azabicyclo[3.1.1]heptan-3-yl)-8-fluoro-2-(((2R,7aS)-2-fluorotetrahydro-1H-pyrrolizin-7a(5H)-yl)methoxy)pyrido [4,3-d]pyrimidin-7-yl)-5-ethyl-6-fluoronaphthalen-2-ol] | 2.28 | 62 | – |
| CCc1c(F)ccc2cc(O)cc(-c3ncc4c(N5CCCOC(CO)C5)nc(OC[C@@]56CCCN5C[C@H](F)C6)nc4c3F)c12 (single isomer, unassigned) [Example 48] | 1.05 | 10 | – |
| CCc1cccc2cc(O)cc(-c3ncc4c(N5CC6COC(C6)C5)nc(OC[C@@]56CCCN5C[C@H](F)C6)nc4c3F)c12 (stereo partly drawn) [Example 10, 4-(4-(6-Oxa-3-azabicyclo[3.2.1]octan-3-yl)-8-fluoro-2-(((2R,7aS)-2-fluorotetrahydro-1H-pyrrolizin-7a(5H)-yl)methoxy)pyrido [4,3-d]pyrimidin-7-yl)-5-ethylnaphthalen-2-ol] | 0.277 | 8 | – |
| CN1C[C@H](F)C[C@H]1COc1nc(N2CCCOCC2)c2cnc(-c3cc(O)cc4ccc(F)c(F)c34)c(F)c2n1 [Example 8, 5,6-Difluoro-4-(8-fluoro-2-(((2S,4R)-4-fluoro-1-methylpyrrolidin-2-yl)methoxy)-4-(1,4-oxazepan-4-yl)pyrido[4,3-d]pyrimidin-7-yl)naphthalen-2-ol] | 0.103 | 5 | – |
| CCc1c(F)ccc2cc(O)cc(-c3ncc4c(N5CCS(=N)(=O)CC5)nc(OC[C@@]56CCCN5C[C@H](F)C6)nc4c3F)c12 [Example 35, 4-(7-(8-Ethyl-7-fluoro-3-hydroxynaphthalen-1-yl)-8-fluoro-2-(((2R,7aS)-2-fluorotetrahydro-1H-pyrrolizin-7a(5H)-yl)methoxy)pyrido[4,3-d]pyrimidin-4-yl)-1-imino-1 λ^6-thiomorpholine 1-oxide] | > 10 | 57 | – |
| CCc1c(F)ccc2cc(O)cc(-c3ncc4c(N5CCCOC(C(N)=O)C5)nc(OC[C@@]56CCCN5C[C@H](F)C6)nc4c3F)c12 (stereo partly drawn) [Example 51, 4-(7-(8-Ethyl-7-fluoro-3-hydroxy-naphthalen-1-yl)-8-fluoro-2-(((2R, 7aS)-2-fluorotetra-hydro-1H-pyrrol-zin-7a(5H)-yl)-methoxy)pyrido [4,3-d]pyrimidin-4-yl)-1,4-oxazepane-2-carboxamide] | 6.23 | 6 | – |
| CCc1c(F)ccc2cc(O)cc(-c3ncc4c(N5CCOC[C@H](CO)C5)nc(OC[C@@]56CCCN5C[C@H](F)C6)nc4c3F)c12 [Example 49, 5-Ethyl-6-fluoro-4-(8-fluoro-2-(((2R, 7aS)-2-fluorotetra-hydro-1H-pyrrol-izin-7a(5H)-yl)-methoxy)-4-((S)-6-(hydroxymethyl)-1,4-oxazepan-4-yl)-pyrido[4,3-d]pyr-imidin-7-yl)naph-thalen-2-ol] | – | 13 | 0.889 |
| CCc1cccc2cc(O)cc(-c3ncc4c(N5CCCOCC5)nc(OC[C@@]56CCCN5C[C@H](F)C6)nc4c3F)c12 [Example 2, 5-Ethyl-4-(8-fluoro-2-(((2R,7aS)-2-fluorotetrahydro-1H-pyrrolizin-7a(5H)-yl)methoxy)-4-(1,4-oxazepan-4-yl)pyrido[4,3-d]pyrimidin-7-yl)naphthalen-2-ol] | 0.033 | 1 | – |
| CCc1c(F)ccc2cc(O)cc(-c3ncc4c(N5CCOCC5)nc(OC[C@@]56CCCN5C[C@H](F)C6)nc4c3F)c12 [Example 24, 5-Ethyl-6-fluoro-4-(8-fluoro-2-(((2R,7aS)-2-fluorotetrahydro-1H-pyrrolizin-7a(5H)-yl)methoxy)-4-morpholinopyrido [4,3-d]pyrimidin-7-yl)naphthalen-2-ol] | 0.586 | 11 | – |
| CCc1c(F)ccc2cc(O)cc(-c3ncc4c(N5CCOCC(=O)C5)nc(OCC56CCCN5CC(F)C6)nc4c3F)c12 [Example 67, 4-(7-(8-ethyl-7-fluoro-3-hydroxy-naphthalen-1-yl)-8-fluoro-2-(((2R,7aS)-2-fluorotetrahydro-1H-pyrrolizin-7a(5H)-yl)methoxy)-pyrido[4,3-d]pyrim-idin-4-yl)-1,4-oxazepan-6-one] | 0.072 | 2 | – |
| CCc1c(F)ccc2cc(O)cc(-c3ncc4c(N5CCCOCC5)nc(OCC5(CN6CCOCC6)CC5)nc4c3F)c12 [Example 17, 5-Ethyl-6-fluoro-4-(8-fluoro-2-((1-(morpholinomethyl)cyclopropyl)methoxy)-4-(1,4-oxazepan-4-yl)pyrido[4,3-d]pyrimidin-7-yl)naphthalen-2-ol] | 0.189 | 3 | – |
| CCc1cccc2cc(O)cc(-c3ncc4c(N5CCCOCC5)nc(OC[C@@H]5C[C@@H](F)CN5C)nc4c3F)c12 [Example 32, 5-Ethyl-4-(8-fluoro-2-(((2S,4R)-4-fluoro-1-methylpyrrolidin-2-yl)methoxy)-4-(1,4-oxazepan-4-yl)pyrido[4,3-d]pyrimidin-7-yl)naphthalen-2-ol] | 0.966 | 13 | – |
| CCc1c(F)ccc2cc(O)cc(-c3ncc4c(N5CCOC6CC65)nc(OC[C@@]56CCCN5C[C@H](F)C6)nc4c3F)c12 (stereo partly drawn) [Example 66, 4-(4-((1R,6S)-2-oxa-5-azabicyclo[4.1.0]heptan-5-yl)-8-fluoro-2-(((2R,7aS)-2-fluorotetrahydro-1H-pyrrolizin-7a(5H)-yl)methoxy)-pyrido[4,3-d]pyrim-idin-7-yl)-5-ethyl-6-fluoronaphthalen-2-ol] | 0.592 | 15 | – |
| CCc1c(F)ccc2cc(O)cc(-c3ncc4c(N5CCOC[C@@](C)(O)C5)nc(OC[C@@]56CCCN5C[C@H](F)C6)nc4c3Cl)c12 (single isomer, unassigned) [Example 80] | 0.024 | 4 | – |
| CCc1c(F)ccc2cc(O)cc(-c3ncc4c(N5CC[S+]([O-])CC5)nc(OC[C@@]56CCCN5C[C@H](F)C6)nc4c3F)c12 [Example 34, 4-(7-(8-Ethyl-7-fluoro-3-hydroxynaphthalen-1-yl)-8-fluoro-2-(((2R,7aS)-2-fluorotetrahydro-1H-pyrrolizin-7a(5H)-yl)methoxy)pyrido[4,3-d]pyrimidin-4-yl)thiomorpholine 1-oxide] | 0.393 | 1 | – |
| CCc1c(F)ccc2cc(O)cc(-c3ncc4c(N5[C@@H]6CC[C@H]5COC6)nc(OC[C@@]56CCCN5C[C@H](F)C6)nc4c3F)c12 [Example 6, 4-(4-((1R,5S)-3-Oxa-8-azabicyclo[3.2.1]octan-8-yl)-8-fluoro-2-(((2R,7aS)-2-fluorotetrahydro-1H-pyrrolizin-7a(5H)-yl)methoxy)pyrido [4,3-d]pyrimidin-7-yl)-5-ethyl-6-fluoronaphthalen-2-ol] | 1.77 | 69 | – |
| Oc1cc(-c2ncc3c(N4C[C@H]5COC[C@@H](C4)O5)nc(OC[C@@]45CCCN4C[C@H](F)C5)nc3c2F)c2c(F)c(F)ccc2c1 [Example 19, 4-(4-((1R,5S)-3,9-Dioxa-7-azabicyclo[3.3.1]nonan-7-yl)-8-fluoro-2-(((2R,7aS)-2-fluorotetrahydro-1H-pyrrolizin-7a(5H)-yl)methoxy)pyrido [4,3-d]pyrimidin-7-yl)-5,6-difluoronaphthalen-2-ol] | 1.1 | 9 | – |
| Cc1c(Cl)cc2[nH]ncc2c1-c1ncc2c(N3CCCOCC3)nc(OC[C@@]34CCCN3C[C@H](F)C4)nc2c1F [Example 15, 4-(7-(6-Chloro-5-methyl-1H-indazol-4-yl)-8-fluoro-2-(((2R,7aS)-2-fluorotetrahydro-1H-pyrrolizin-7a(5H)-yl)methoxy)pyrido [4,3-d]pyrimidin-4-yl)-1,4-oxazepane] | 4.51 | 36 | – |
| CCc1c(F)ccc2cc(O)cc(-c3ncc4c(N5CCOCC(O)(CC)C5)nc(OC[C@@]56CCCN5C[C@H](F)C6)nc4c3F)c12 (stereo partly drawn) [Example 73, 6-Ethyl-4-(7-(8-ethyl-7-fluoro-3-hydroxynaphthalen-1-yl)-8-fluoro-2-(((2R,7aS)-2-fluorotetrahydro-1H-pyrrolizin-7a(5H)-yl)methoxy)pyrido[4,3-d]pyrimidin-4-yl)-1,4-oxazepan-6-ol] | 0.063 | 3 | – |
